Assay results taken from patent US12698258B2, “Cystine cationic lipids” (Translate Bio, Inc., priority 2019, dated 2026).

System: hEPO protein expression
Test: In vivo expression of hEPO after IM injection of lipid nanoparticle formulations with hEPO mRNA
Parameters: species or system BALB/c mice
Conditions: lipid nanoparticles comprising the compound and hEPO mRNA; single intramuscular injection, 0.1 ug; hEPO in sera by ELISA; 24 hours after administration
Procedure: In embodiments, cationic lipids described herein can be used in the preparation of lipid nanoparticles according to methods known in the art. For example, suitable methods include methods described in international Publication No. WO 2018/089801, which is hereby incorporated by reference in its entirety.
Lipid nanoparticle formulations comprising human erythropoietin (hEPO) mRNA, Cationic Lipid, DMG-PEG2000, Cholesterol and DOPE were administered intramuscularly to study mRNA delivery and resultant hEPO expression. Male BALB/c mice at 6-8 weeks old are given a single injection of the LNP formulations into the gastrocnemius muscle at a dosage level of 0.1 ug. Blood samples were collected at 6 and 24 hours post-dose. hEPO protein expression levels were measured in the sera samples by ELISA and presented in FIG. 1.

SMILES | in vivo protein production resulting from the delivery of mRNA (FIG. 1)
CCCCCCCC(C)COC(=O)CCN(CCC(=O)OCCCCCCCC(C)C)[C@@H](CSSC[C@@H](C(=O)OC(C)CN(CCCN(C)C)CCCN(C)C)N(CCC(=O)OCCCCCCCC(C)C)CCC(=O)OCC(C)CCCCCCC)C(=O)OC(C)CN(CCCN(C)C)CCCN(C)C (some centres unmarked) [Compound 3] | high levels of in vivo protein production
CCCCCCCC(C)COC(=O)CCN(CCC(=O)OCCCCCCCC(C)C)[C@@H](CSSC[C@@H](C(=O)OCCOCCOCCOC)N(CCC(=O)OCCCCCCCC(C)C)CCC(=O)OCC(C)CCCCCCC)C(=O)OCCOCCOCCOC (some centres unmarked) [Compound 4] | high levels of in vivo protein production
